Assay results taken from the OPERA property sets (Mansouri et al. 2018).

conditions: not given

Structure (SMILES) | boiling point [°C] | log10 vapour pressure (mmHg) | melting point [°C] | ready biodegradability | log10 Koc (L/kg) | log10 Henry constant (atm·m³/mol) | log10 Koa
O=C(O)c1ccc2c(c1)C(=O)OC2=O | 390 | -5.01 | 162 | readily biodegradable | – | – | –
CCCC(C)C(C)CCC (stereo unspecified) | 162 | – | – | – | – | – | –
c1ccc(COc2ccccc2)cc1 | 286 | -2.2 | 40 | – | – | – | –
CC(Br)C(Br)Br (stereo unspecified) | 200 | – | – | – | – | – | –
CCC(C)CC(C)(C)CC (stereo unspecified) | 156 | – | – | – | – | – | –
Nc1ccc2c(c1)CCC2 | 248 | – | 37.5 | – | – | – | –
c1nnn[nH]1 | – | – | 157 | – | – | – | –
CCN(CC)CCn1cnc2c1c(=O)n(C)c(=O)n2C | – | – | 75 | – | – | – | –
CCCCC1C(=O)NC(=O)N(C2CCCCC2)C1=O (stereo unspecified) | – | – | 84 | – | – | – | –
CCN(CC)C(=O)SCc1ccc(Cl)cc1 | – | -4.66 | 3.3 | – | 3.27 | – | –
Cc1c2ccncc2c(C)c2c1[nH]c1ccccc12 | – | – | 313 | – | – | – | –
O=C(Nc1ccccc1Cl)c1ccccc1 | – | – | 99 | – | – | – | –
CC(=O)c1cc(C)ccc1C | 232 | – | -18.1 | – | – | – | –
CCCCCCCCCO | – | – | – | readily biodegradable | – | – | –
COc1ccc(C[C@H](N)C(=O)N[C@H]2[C@@H](O)[C@H](n3cnc4c(N(C)C)ncnc43)O[C@@H]2CO)cc1 | – | – | 176 | – | – | – | –
C#CC(O)c1ccccc1 (stereo unspecified) | – | – | 22 | – | – | – | –
Cc1ccc2[nH]ccc2c1 | 267 | – | 60 | – | – | – | –
O=C(C(=O)c1ccccc1)c1ccccc1 | 347 | -3.68 | 94.8 | – | – | – | –
CCCCOB(OCCCC)OCCCC | 234 | -0.279 | – | – | – | – | –
O=Cc1cccc(Br)c1 | 234 | – | – | – | – | – | –
ClCC(Cl)C(Cl)(Cl)Cl (stereo unspecified) | 180 | – | – | – | – | – | –
COc1ccc(CCNCC(O)COc2cccc(C)c2)cc1OC (stereo unspecified) | – | – | 138 | – | – | – | –
C[C@]12CC[C@H]3[C@@H](CCC4=C(Cl)C(=O)CC[C@@]43C)[C@@H]1CC[C@@H]2O | – | – | 189 | – | – | – | –

Structure (SMILES) | boiling point [°C] | log10 vapour pressure (mmHg) | melting point [°C] | ready biodegradability | log10 Koc (L/kg) | log10 Henry constant (atm·m³/mol) | log10 Koa
FC(F)(Br)Br | 25 | 2.91 | -110 | – | – | – | –
CCN1CCNC(=O)C1=O | – | – | 108 | – | – | – | –
C=CC(C)C(C)CC (stereo unspecified) | 112 | – | – | – | – | – | –
CC(=O)Nc1cccc(Br)c1 | – | – | – | – | 2.01 | – | –
CC(C)(c1ccccc1)c1ccc(Nc2ccc(C(C)(C)c3ccccc3)cc2)cc1 | – | – | – | not readily biodegradable | – | – | –
C[Se][Se]C | 156 | 0.455 | – | – | – | – | –
O=C(O)C(c1ccccc1)c1ccccc1 | – | – | 147 | – | – | – | –
Clc1cccc(-c2c(Cl)c(Cl)cc(Cl)c2Cl)c1Cl | – | -5.96 | – | – | – | -4.31 | –
O=P(O)(O)CCP(=O)(O)O | – | – | 218 | – | – | – | –
CCCCCCCCCCCCCCCCCCCCC1CCCCC1 | 430 | – | 48.5 | – | – | – | –
CC1=C(O)C(=O)CC1 | – | – | 106 | – | – | – | –
CCC=C(C)C | 67.3 | 2.2 | -135 | – | – | – | –
CC(C)(N)C(=O)O | – | – | 335 | – | – | – | –
O=C1OCCN1/N=C/c1ccc([N+](=O)[O-])o1 | – | – | 255 | – | – | – | –
NC(=O)c1ccccc1OCC(=O)O | – | – | 221 | – | – | – | –
CCOC(=O)c1ccc(OCC)cc1 | 275 | – | – | – | – | – | –
CS(=O)(=O)F | 124 | 1.04 | – | – | – | – | –
N#Cc1cc(I)c(O)c(I)c1 | – | – | 212 | not readily biodegradable | – | – | –
CCCCCCCCCCCCC(CCCCCCCCCCC)CCCCCCCCCCCC | – | – | 9.7 | – | – | – | –
O=C1OC(=O)C2C1C1(Cl)C(Cl)=C(Cl)C2(Cl)C1(Cl)Cl (stereo unspecified) | – | – | 233 | – | – | – | –
OCCc1ccc2ccccc2n1 | – | – | 103 | – | – | – | –
CN(C)CCn1cnc2c1c(=O)n(C)c(=O)n2C | – | – | 95 | – | – | – | –
C=C(C)[C@H]1CCC(C)=C[C@@H]1c1c(O)cc(CCCCC)cc1O | – | – | 67 | – | – | – | –

Structure (SMILES) | boiling point [°C] | log10 vapour pressure (mmHg) | melting point [°C] | ready biodegradability | log10 Koc (L/kg) | log10 Henry constant (atm·m³/mol) | log10 Koa
Sc1cccc2ccccc12 | 285 | – | – | not readily biodegradable | – | – | –
C1CCC2CC2C1 (stereo unspecified) | 116 | 1.36 | – | – | – | – | –
O=C(O)Cc1ccccc1CC(=O)O | – | – | 151 | – | – | – | –
Nc1nc(=O)[nH]cc1F | – | – | 296 | – | – | – | –
COP(=S)(OC)SCC(=O)N(c1ccc(Cl)cc1)C(C)C | – | – | 51 | – | – | – | –
Cc1cc2ncn(C3OC(CO)C(O)C3O)c2cc1C (stereo unspecified) | – | – | 198 | – | – | – | –
CC(C)NCc1ccccc1 | 200 | – | – | – | – | – | –
CCC(=O)CC(C)=O | 160 | – | – | – | – | – | –
CCCC=CCCCCC | 171 | – | – | – | – | – | –
CC(C)CC(C)(C)O | 133 | – | – | – | – | – | –
CC(C)C(Nc1ccc(C(F)(F)F)cc1Cl)C(=O)OC(C#N)c1cccc(Oc2ccccc2)c1 (stereo unspecified) | – | – | – | – | 5.71 | – | –
CC1SC(C)SC(C)S1 (stereo unspecified) | 246 | – | 101 | – | – | – | –
C[N+](C)(C)CCOC(=O)CCC(=O)OCC[N+](C)(C)C.[I-].[I-] | – | – | 244 | – | – | – | –
CCOC(=O)C(=O)C(=O)OCC | 210 | – | -30 | – | – | – | –
O=C1c2ccccc2C(=O)c2c1ccc([N+](=O)[O-])c2[N+](=O)[O-] | – | -11.2 | 341 | – | – | – | –
CCCCCCCC(=O)OCC(COC(=O)CCCCCCC)OC(=O)CCCCCCC | – | – | 10 | – | – | – | –
C#CCCl | 58 | – | – | – | – | – | –
CC(N)CC(=O)O (stereo unspecified) | – | – | 193 | – | – | – | –
Clc1ccc(Cl)c(Br)c1 | 226 | – | 35 | – | – | – | –
COC(=O)C1(S(=O)(=O)c2ccc([N+](=O)[O-])cc2)CC1 | – | – | 127 | – | – | – | –
CCCC1CCNCC1 | 173 | – | – | – | – | – | –
CCOc1ccc(Cc2nccc3cc(OCC)c(OCC)cc23)cc1OCC | – | – | 100 | – | – | – | –
OCCCCCCCCCCF | – | – | 22 | – | – | – | –

Structure (SMILES) | boiling point [°C] | log10 vapour pressure (mmHg) | melting point [°C] | ready biodegradability | log10 Koc (L/kg) | log10 Henry constant (atm·m³/mol) | log10 Koa
O=C1c2ccc(O)cc2OC(c2ccc(O)c(O)c2)C1O (stereo unspecified) | – | – | 227 | – | – | – | –
OCCC1CCCC1 | 183 | – | – | – | – | – | –
C#CCCCCCC#C | 162 | – | -27.3 | – | – | – | –
CCOc1nc(NC)nc(NC(=O)NS(=O)(=O)c2ccccc2C(=O)OC)n1 | – | – | 194 | – | 1.93 | – | –
CN(N)c1ccccc1 | 228 | – | – | – | – | – | –
COc1ccc(/C=N/NC(=O)c2ccncc2)cc1OC | – | – | 189 | – | – | – | –
Oc1cccc(C(F)(F)F)c1 | 178 | – | -1.8 | – | – | – | –
CC[C@H](C)CBr | 122 | – | – | – | – | – | –
Cc1cccc(-c2ccccc2)c1 | 273 | – | 4.5 | – | – | – | –
O=C1CN=C(c2ccccc2)c2cc(Cl)ccc2N1CC1CC1 | – | – | 146 | – | – | – | –
CC1CCCO1 (stereo unspecified) | 78 | 1.99 | – | – | – | -4.03 | –
CC(C)CCC(C)(C)O | 154 | – | – | – | – | – | –
Cc1cc(-c2cc(C)c(O)c(C)c2)cc(C)c1O | – | – | 222 | – | – | – | –
Clc1ccc2c(c1)Oc1cc(Cl)c(Cl)cc1O2 | – | -7.05 | 162 | – | – | – | 9.14
N=C(N)NCCC[C@H](N)C(=O)O | – | – | – | readily biodegradable | – | – | –
C=CC(O)CO (stereo unspecified) | 196 | – | – | – | – | – | –
FC(F)(F)Br | -57.8 | 4.09 | -172 | – | – | -0.302 | –
O=Cc1cccc([N+](=O)[O-])c1 | – | -2.14 | 58.5 | – | – | – | –
O=Cc1cccc2c1CCOC2=O | – | – | 140 | – | – | – | –
Cc1ccccc1N(C)C | 194 | -0.0643 | -60 | – | – | – | –

same assay, conditions: […]

Structure (SMILES) | log10 OH rate constant (cm³/molecule/s)
C=C/C(C)=C\CC=C(C)C | -9.6

same assay, conditions: fish

Structure (SMILES) | log10 BCF | log10 biotransformation half-life (days)
Brc1ccc(Oc2cc(Br)c(Br)c(Br)c2)cc1Br | 6.43 | –
CCN(CC)C(=O)SCc1ccc(Cl)cc1 | 2.23 | 0.66
CC(=CC(C)C)CC(C)C | – | 0.92
